Format in all cases: in vivo
One data set deals with transplanted rice plant. The experiment in a line: Test Example 1: effect on crop, application before weed generation in submerged conditions (symbol a). The conditions noted are these: application herbicide amount 320 g/ha. In short, it runs like this:
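Alluvial soil pots flooded to 4 cm water, sown with Echinochloa oryzacola, Scirpus juncoides and Monochoria vaginalis, then transplanted with 2.5 leaf stage rice seedlings; pre-emergence application. Greenhouse 25° C. to 30° C.; scored 0–5 by herbicidal ratio 3 weeks after application.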

The subject of data set [1] is Echinochloa crus-galli var. crus-galli. The experiment in a line: Test Example 3: herbicidal effect by foliage application, Wagner pot (symbol H). To be noted: application herbicide amount 320 g/ha. The method, boiled down:
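Steps: fill pot with alluvial soil; add water to 0.1–0.5 cm depth; sow weed and rice seed; grow 14 days at 25–30 °C; spray diluted emulsion over the leaves; rate effect after 3 weeks.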

Data set [2] deals with directly sowed rice plant. The experiment in a line: Test Example 3: effect on crop by foliage application, Wagner pot (symbol b). To be noted: application herbicide amount 320 g/ha. In short, it runs like this: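 Steps: fill a 1/10000-are Wagner pot with alluvial soil; add water and mix to submerge at 0.1–0.5 cm depth; sow rice plus Echinochloa crus-galli var. crus-galli, Leptochloa chinensis and Cyperus difformis; grow in a 25–30 °C greenhouse.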

In data set [3] the test system is Digitaria ciliaris. The experiment in a line: Test Example 4: herbicidal effect by soil treatment (symbol F). The conditions noted are these: application herbicide amount 320 g/ha. The method, boiled down:
(§1)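 Seeds were sown in sterilized diluvial soil, covered with about 1.5 cm of soil, and the soil surface was sprayed with a water-diluted emulsion of the compound at a predetermined rate. Plants grew in a greenhouse at 25° C. to 30° C.; effects were scored visually 3 weeks after application.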

A further data set deals with Setaria viridis. The experiment in a line: Test Example 4: herbicidal effect by soil treatment (symbol G). To be noted: application herbicide amount 320 g/ha. In short, it runs like this: as §1
The subject of data set [4] is Lolium multiflorum Lam. Put plainly: Test Example 4: herbicidal effect by soil treatment (symbol K). The conditions noted are these: application herbicide amount 320 g/ha. In short, it runs like this: as §1
The next data set has as its system Amaranthus retroflexus. The experiment in a line: Test Example 4: herbicidal effect by soil treatment (symbol N). The conditions noted are these: application herbicide amount 320 g/ha. The method, boiled down: as §1
Data set [5] concerns Chenopodium album. Put plainly: Test Example 4: herbicidal effect by soil treatment (symbol O). To be noted: application herbicide amount 320 g/ha. The method, boiled down:
as §1

The test system of another data set is Galium spurium. The experiment in a line: Test Example 4: herbicidal effect by soil treatment (symbol Q). The conditions noted are these: application herbicide amount 320 g/ha. In short, it runs like this:
as §1

The test system of another data set is Veronica persica. The experiment in a line: Test Example 4: herbicidal effect by soil treatment (symbol R). The conditions noted are these: application herbicide amount 320 g/ha. The method, boiled down:
as §1

The test system of another data set is wheat. The experiment in a line: Test Example 4: effect on crop by soil treatment (symbol e). To be noted: application herbicide amount 320 g/ha. In short, it runs like this:
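Steps: fill box with sterilized diluvial soil; sow seed spot-like; cover with ~1.5 cm soil; grow in greenhouse (25° C. to 30° C.).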

The test system of data set [6] is Digitaria ciliaris. Put plainly: Test Example 5: herbicidal effect by foliage application, plastic box (symbol F). The conditions noted are these: 320 g/ha, 3 weeks after application. The method, boiled down:
(§2)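 Sowing in sterilized diluvial soil, 14 days' greenhouse growth at 25° C. to 30° C., then uniform small-sprayer foliar application of aqueous emulsion dilution; plants scored three weeks afterwards.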

The subject of a further data set is Alopecurus myosuroides. Put plainly: Test Example 5: herbicidal effect by foliage application, plastic box (symbol J). To be noted: 320 g/ha, 3 weeks after application. The method, boiled down: as §2
Data set [7] relates to Lolium multiflorum Lam. Put plainly: Test Example 5: herbicidal effect by foliage application, plastic box (symbol K). To be noted: 320 g/ha, 3 weeks after application. The method, boiled down:
as §2

The next data set concerns Abutilon theophrasti. Put plainly: Test Example 5: herbicidal effect by foliage application, plastic box (symbol M). The conditions noted are these: 320 g/ha, 3 weeks after application. The method, boiled down:
as §2

The subject of data set [8] is Chenopodium album. The experiment in a line: Test Example 5: herbicidal effect by foliage application, plastic box (symbol O). The conditions noted are these: 320 g/ha, 3 weeks after application. In short, it runs like this: as §2
In a further data set the test system is Stellaria media. Put plainly: Test Example 5: herbicidal effect by foliage application, plastic box (symbol P). To be noted: 320 g/ha, 3 weeks after application. In short, it runs like this:
as §2

The test system of a further data set is beet. Put plainly: Test Example 5: effect on crop by foliage application, plastic box (symbol f). The conditions noted are these: 320 g/ha, 3 weeks after application. The method, boiled down: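 In a plastic box 7 cm deep filled with sterilized diluvial soil, seeds of crops and weeds such as Digitaria ciliaris, Avena fatua and Amaranthus retroflexus are sown in spots and covered with about 1.5 cm of soil before greenhouse growth at 25–30° C.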

In the case of `COc1cc(C)c(C2=C(O)CC(CC(C)=O)C2=O)c(C)c1` (stereo not drawn) [7-020], in the data set on transplanted rice plant, the “Effect grade on crop, a: transplanted rice plant” value (“Effect grade on crop” below) is 2 (Herbicidal ratio of 20% or higher and lower than 40%). In data set [1], the “herbicidal effect on H (Echinochloa crus-galli var. crus-galli), grade 0-5” value (“herbicidal effect on H” below) is 4 (Herbicidal ratio of 70% or higher and lower than 90%). In addition, the “effect on crop b (directly sowed rice plant), grade 0-5” value (from here on “effect on crop b”) in data set [2] is 4 (Herbicidal ratio of 70% or higher and lower than 90%). Moreover, the “Herbicidal effect grade, F: Digitaria ciliaris” value in the data set on Digitaria ciliaris [3] is 3 (Herbicidal ratio of 40% or higher and lower than 70%). Also, the “Herbicidal effect grade, G: Setaria viridis” value with Setaria viridis is 2 (Herbicidal ratio of 20% or higher and lower than 40%). Moreover, in the data set with Lolium multiflorum Lam. [4], the “Herbicidal effect grade, K: Lolium multiflorum Lam.” value was 3 (Herbicidal ratio of 40% or higher and lower than 70%). In addition, the “Herbicidal effect grade, N: Amaranthus retroflexus” value with Amaranthus retroflexus is given as 0 (Herbicidal ratio of 5% or lower (almost no effect)). In addition, in the data set on Chenopodium album [5], the “Herbicidal effect grade, O: Chenopodium album” value is 0 (Herbicidal ratio of 5% or lower (almost no effect)). The “Herbicidal effect grade, Q: Galium spurium” value in the data set on Galium spurium is reported as 0 (Herbicidal ratio of 5% or lower (almost no effect)). Moreover, the “Herbicidal effect grade, R: Veronica persica” value with Veronica persica is 0 (Herbicidal ratio of 5% or lower (almost no effect)). For the same compound, the “Effect on crop grade, e: wheat” value in the data set on wheat was 0 (Herbicidal ratio of 5% or lower (almost no effect)). Moreover, the “F: Digitaria ciliaris, herbicidal effect (criteria of Test Example 1)” value with Digitaria ciliaris [6] is 5 (Herbicidal ratio of 90% or more (almost completely withered)). Besides, in the data set with Alopecurus myosuroides, the “J: Alopecurus myosuroides, herbicidal effect (criteria of Test Example 1)” value (shortened to “J: Alopecurus myosuroides”) is 4 (Herbicidal ratio of 70% or higher and lower than 90%). For the same compound, the “K: Lolium multiflorum Lam., herbicidal effect (criteria of Test Example 1)” value in the data set on Lolium multiflorum Lam. [7] was 4 (Herbicidal ratio of 70% or higher and lower than 90%). Besides, the “M: Abutilon theophrasti, herbicidal effect (criteria of Test Example 1)” value (shortened to “M: Abutilon theophrasti”) with Abutilon theophrasti is given as 0 (Herbicidal ratio of 5% or lower (almost no effect)). In addition, in the data set on Chenopodium album [8], the “O: Chenopodium album, herbicidal effect (criteria of Test Example 1)” value is recorded as 0 (Herbicidal ratio of 5% or lower (almost no effect)). The “P: Stellaria media, herbicidal effect (criteria of Test Example 1)” value (“P: Stellaria media, herbicidal effect” for short) in the data set on Stellaria media is 0 (Herbicidal ratio of 5% or lower (almost no effect)). The “f: beet, effect on crop (criteria of Test Example 1)” value (“f: beet, effect on crop” below) with beet was 0 (Herbicidal ratio of 5% or lower (almost no effect)).
`CON=C(C)CC1CC(O)=C(c2c(C)cc(Br)cc2OC)C1=O` (stereo not drawn) [6-076, 2-(4-bromo-2-methoxy-6-methylphenyl)-3-hydroxy-5-{2-(methoxyimino)propyl}cyclopent-2-enone]: the “Effect grade on crop” value in the data set on transplanted rice plant is 5 (Herbicidal ratio of 90% or more (almost completely withered)). For the same compound, in data set [1], the “herbicidal effect on H” value is given as 5 (Herbicidal ratio of 90% or more (almost completely withered)). Moreover, the “effect on crop b” value in [2] was 5 (Herbicidal ratio of 90% or more (almost completely withered)). In the data set on Digitaria ciliaris [3], the “F: Digitaria ciliaris, herbicidal effect grade” value is 5 (Herbicidal ratio of 90% or more (almost completely withered)). In the data set with Setaria viridis, the “G: Setaria viridis, herbicidal effect grade” value is reported as 5 (Herbicidal ratio of 90% or more (almost completely withered)). Further, the “K: Lolium multiflorum Lam., herbicidal effect grade” value with Lolium multiflorum Lam. [4] is on record as 5 (Herbicidal ratio of 90% or more (almost completely withered)). In addition, the “N: Amaranthus retroflexus, herbicidal effect grade” value with Amaranthus retroflexus is 1 (Herbicidal ratio of 5% or higher and lower than 20%). For the same compound, the “O: Chenopodium album, herbicidal effect grade” value with Chenopodium album [5] is 0 (Herbicidal ratio of 5% or lower (almost no effect)). The “Q: Galium spurium, herbicidal effect grade” value in the data set on Galium spurium is 0 (Herbicidal ratio of 5% or lower (almost no effect)). The “R: Veronica persica, herbicidal effect grade” value in the data set with Veronica persica is 0 (Herbicidal ratio of 5% or lower (almost no effect)). Also, the “e: wheat, effect on crop grade” value in the data set with wheat is 0 (Herbicidal ratio of 5% or lower (almost no effect)). In the data set on Digitaria ciliaris [6], the “F: Digitaria ciliaris, herbicidal effect (criteria of Test Example 1)” value was 5 (Herbicidal ratio of 90% or more (almost completely withered)). Also, the “J: Alopecurus myosuroides” value in the data set on Alopecurus myosuroides is 5 (Herbicidal ratio of 90% or more (almost completely withered)). Besides, in the data set with Lolium multiflorum Lam. [7], the “K: Lolium multiflorum Lam., herbicidal effect (criteria of Test Example 1)” value is 5 (Herbicidal ratio of 90% or more (almost completely withered)). Further, the “M: Abutilon theophrasti” value in the data set on Abutilon theophrasti was 5 (Herbicidal ratio of 90% or more (almost completely withered)). The “O: Chenopodium album, herbicidal effect (criteria of Test Example 1)” value in the data set on Chenopodium album [8] was 2 (Herbicidal ratio of 20% or higher and lower than 40%). In addition, the “P: Stellaria media, herbicidal effect” value in the data set on Stellaria media was 2 (Herbicidal ratio of 20% or higher and lower than 40%). Besides, in the data set with beet, the “f: beet, effect on crop” value was 0 (Herbicidal ratio of 5% or lower (almost no effect)).
Take `CCc1cc(-c2ccc(Cl)cc2)cc(C)c1C1=C(O)CC(CC(C)=NOC)C1=O` (stereo not drawn) [6-066]: in the data set with transplanted rice plant, the “Effect grade on crop” value was 3 (Herbicidal ratio of 40% or higher and lower than 70%). Also, in data set [1], the “herbicidal effect on H” value was 5 (Herbicidal ratio of 90% or more (almost completely withered)). In data set [2], the “effect on crop b” value is listed as 5 (Herbicidal ratio of 90% or more (almost completely withered)). Moreover, in the data set with Digitaria ciliaris [3], the “F: Digitaria ciliaris, herbicidal effect grade” value is 5 (Herbicidal ratio of 90% or more (almost completely withered)). Further, the “G: Setaria viridis, herbicidal effect grade” value in the data set with Setaria viridis was 5 (Herbicidal ratio of 90% or more (almost completely withered)). Besides, the “K: Lolium multiflorum Lam., herbicidal effect grade” value with Lolium multiflorum Lam. [4] was 5 (Herbicidal ratio of 90% or more (almost completely withered)). Besides, the “N: Amaranthus retroflexus, herbicidal effect grade” value in the data set with Amaranthus retroflexus was 2 (Herbicidal ratio of 20% or higher and lower than 40%). In addition, the “O: Chenopodium album, herbicidal effect grade” value in the data set on Chenopodium album [5] is listed as 0 (Herbicidal ratio of 5% or lower (almost no effect)). Moreover, the “Q: Galium spurium, herbicidal effect grade” value in the data set with Galium spurium was 0 (Herbicidal ratio of 5% or lower (almost no effect)). In addition, in the data set with Veronica persica, the “R: Veronica persica, herbicidal effect grade” value was 3 (Herbicidal ratio of 40% or higher and lower than 70%). In the data set with wheat, the “e: wheat, effect on crop grade” value was 4 (Herbicidal ratio of 70% or higher and lower than 90%). Further, in the data set on Digitaria ciliaris [6], the “F: Digitaria ciliaris, herbicidal effect (criteria of Test Example 1)” value is on record as 5 (Herbicidal ratio of 90% or more (almost completely withered)). The “J: Alopecurus myosuroides” value with Alopecurus myosuroides is reported as 5 (Herbicidal ratio of 90% or more (almost completely withered)). The “K: Lolium multiflorum Lam., herbicidal effect (criteria of Test Example 1)” value in the data set with Lolium multiflorum Lam. [7] was 5 (Herbicidal ratio of 90% or more (almost completely withered)). Moreover, the “M: Abutilon theophrasti” value in the data set on Abutilon theophrasti is 3 (Herbicidal ratio of 40% or higher and lower than 70%). The “O: Chenopodium album, herbicidal effect (criteria of Test Example 1)” value with Chenopodium album [8] is 1 (Herbicidal ratio of 5% or higher and lower than 20%). The “P: Stellaria media, herbicidal effect” value in the data set on Stellaria media is 3 (Herbicidal ratio of 40% or higher and lower than 70%). Also, the “f: beet, effect on crop” value in the data set with beet is listed as 0 (Herbicidal ratio of 5% or lower (almost no effect)).
